Assay results as given in patent US20230041211A1, “DECREASING TOXICITY OF TERPENES AND INCREASING THE PRODUCTION POTENTIAL IN MICRO-ORGANISMS” (BASF SE, priority 2019, published 2023).
≈ marks a conversion by molar mass, not a printed value. Read-outs that look alike come from different tables or passages of the source.

How the values were obtained:
[1] = cited from earlier work; for loqP: Table 3B
[2] = test system: Escherichia coli, Saccharomyces cerevisae, Pseudomonas putida and Rhodobacter sphaeroides; experiment: Toxicity of terpenes on unmodified organisms; details: all four organisms
[3] = cited from earlier work
[4] = test system: adapted E. coli strains (Isolate A to C, Mut T6 A); type: cell-based, Escherichia coli; details: Isobutanol 65 mM, Prenol 40 mM, Butanol 7.5 g/L, Vanillin 1 g/L; Geraniol concentration not given
Method: To investigate the mode of action of the tolerance trait, chemicals with similar properties were tested.
To assess the limitations of the tolerance mechanism, tolerance against three additional chemicals was tested.
(§1) On the next day 25 mL of medium in 250 mL baffled flasks with Teflon® liner screw cabs were inoculated to an OD of 0.2 and incubated at 200 rpm. The terpenoid stress was added to the specified concentration. Before the cell-culture reached stationary phase, part of the culture was transferred to fresh medium in a fresh flask with the terpenoid. The mean culture growth rate was determined by comparing the initial OD and the culture OD before passaging.
(§2) Growth rates were determined by transforming the OD-values of each experiment with the natural logarithm. In the linear regime of growth a line was fit to the data and the slope was determined, which is equal to the growth rate. Growth rates were determined for each flask individually and the growth rate of each condition is given as the mean and standard deviation of three biological replicates.

E. coli MG1655 wild-type [5] = experiment: Toxicity assay: growth rate of wild-type E. coli in M9 medium with the chemical in sealed baffled flasks; type: cell-based, Escherichia coli
Method: The tolerance against Isoprenol was confirmed with the established toxicity assay of growth in M9 medium with Isoprenol in baffled sealed 250 mL flasks. To investigate the mode of action of the tolerance trait, chemicals with similar properties were tested.
as §1, §2
A linear interpolation of the two data-points adjacent to the half-maximal growth rate (MIC50) was used to estimate the compound concentration of half-maximal growth rate. If the corresponding standard-deviations of the growth rates were available the standard error of the MIC50 was computed by error propagation.

[6] = test system: engineered E. coli strains (ΔyghB, ΔmarC, Δrob, rob H48fs); type: cell-based, Escherichia coli
From the text: We began the investigation of the mutations discovered in the final phenotype by testing the knock-out strains of the most promising gene-targets from the readily available Keio collection. The Keio collection is implemented in the BW25113 background which we subsequently used as reference for tolerance testing when using strains derived from the Keio collection. Compared to MG1655 the BW25113 strain is auxotroph for arabinose and rhamnose. Since glucose is the sole carbon source in our growth-assays this should not impact the physiology of tolerance.
Knock-out strains were constructed by amplification of resistance cassette with 25 bp overlap from corresponding Keio strains (Primers 3+4, 5+6 and 7+8). The PCR products carrying a homologous 25 bp sequence and a kanamycin resistance were used to transform E. coli MG1655 using standard procedures (Baba et al., 2006). For over-expression plasmids target genes were amplified with a 25 bp homology to the pAH030 overexpression plasmid. The Plasmid was linearized using the Spel restriction site and the PCR-product containing the gene of interested was inserted using Gibson assembly (Gibson et al., 2009).
Knock out strains were prepared using DNA-fragments isolated from the corresponding Keio collection strains. Recombination was carried out using a standard RED/ET kit (Genebridges Red/ET Kit, 2019).
as §2

[7] = test system: Escherichia coli, Saccharomyces cerevisae, Pseudomonas putida and Rhodobacter sphaeroides
E. coli MG1655 wild-type [8] = details: cited from earlier work

Compound: C=C(C)C1CC=C(C)C(=O)C1 (single isomer, unassigned; (-)) [(-)-Carvone]
- loqP [1]: 2.71

Compound: CC(=O)CCc1ccc(O)cc1 [4-(4-Hydroxyphenyl)-2-butanone]
- loqP [1]: 1.5

Compound: CC(C)=CCCC(C)=CC=O [Citral]
- loqP [1]: 2.9
- toxicity on unmodified organisms [2]: toxic effects

Compound: CCOC(=O)CC [Ethyl Propionate]
- loqP [1]: 1.21

Compound: CCCC(=O)OCC [Ethyl butanoate]
- loqP [1]: 1.77

Compound: CC(C)=CCCC(C)=CCCC(C)=CCO [Farnesol]
- loqP [1]: 4.16
- Solubility ([3]; solubility in water, Table 3B): 50 µg/mL (≈ 0.225 mM)

Compound: CC(C)=CCC/C(C)=C/CO [Geraniol]
- tolerance of adapted strains compared to wild-type [4]: highly elevated susceptibility
- toxicity on unmodified organisms [2]: toxic effects
- Solubility ([3]; solubility in water, Table 3B): 680 µg/mL (≈ 4.41 mM)

Compound: CC(C)CO [Isobutanol]
- EC50 (E. coli MG1655 wild-type [5]; Escherichia coli, MG1655, wild-type strain, read-out: concentration where growth is 50% inhibited (EC50), half maximal inhibitory concentration): 65 mM
- loqP [1]: 0.8
- tolerance of adapted strains compared to wild-type [4]: All strains exhibit an increased tolerance

Compound: C=C(C)CCO [Isoprenol, 3-methyl-3-buten-1-ol]
- growth of wild-type E. coli cells (E. coli MG1655 wild-type [5]; 60 to 80 mM Isoprenol concentration regime): not able to grow
- loqP [1]: 0.89
- logP ([1]; Table A): 0.89
- decrease of fitness ([6]; ΔyghB strain of the Keio collection (BW25113), Isoprenol stress): about 30%
- toxicity on unmodified organisms [2]: toxic effects
- Solubility ([3]; Table A): 90000 µg/mL (≈ 1040 mM)
- Solubility ([3]; solubility in water, Table 3B): 90000 µg/mL (≈ 1040 mM)

Compound: C=C(C)[C@H]1CC=C(C)CC1 [Limonene]
- loqP [1]: 4.571

Compound: C=CC(C)(O)CCC=C(C)C (centres unmarked) [Linalool]
- Solubility ([3]; solubility in water, Table 3B): 1500 µg/mL (≈ 9.72 mM)

Compound: CC1CCC(C(C)C)C(O)C1 (centres unmarked) [Menthol]
- loqP [1]: 3.2
- toxicity on unmodified organisms [7]: toxic effects

Compound: CC(C)=CCO [Prenol]
- EC50 (E. coli MG1655 wild-type [5]; wild-type strain, read-out: concentration where growth is 50% inhibited (EC50), half maximal inhibitory concentration): 40 mM
- loqP [1]: 0.91
- tolerance of adapted strains compared to wild-type [4]: only strain isolate A exhibited an increased tolerance

Compound: COc1cc(C(=O)O)ccc1O [Vanillic Acid]
- loqP [1]: 1.43

Compound: COc1cc(C=O)ccc1O [Vanillin]
- Wild-type growth rate (E. coli MG1655 wild-type [5]; 1.5 g/L Vanillin (FIG. 10B)): 0.23 h⁻¹
- EC50 (E. coli MG1655 wild-type [5]; Escherichia coli, MG1655, wild-type E. coli, own experimental set-up, read-out: experimental EC50 / half-maximal growth repression): 1000 to 1500 µg/mL
- growth rate reduced to fraction of wild-type growth rate (no complete growth inhibition) (E. coli MG1655 wild-type [5]; wild-type E. coli MG1655, concentration regime tested (FIG. 10A)): ⅓
- tolerance of adapted strains compared to wild-type [4]: significantly increased growth rate
- effect of marC knock-out under Vanillin stress ([6]; ΔmarC, 1.5 g/L Vanillin): no significant positive effect
- increase of tolerance compared to wild-type ([6]; Δrob complemented with rob H48fs, 1.5 g/L Vanillin): 36%
- increased growth rate ([6]; Δrob rob H48fs plus marC knock-out, 1.5 g/L Vanillin): 28%
- increase of growth rate ([6]; Δrob, 1.5 g/L Vanillin): 8%
- additional faster growth ([6]; ΔyghB complemented with yghB expression, versus ΔyghB, 1.5 g/L Vanillin): 3%
- increase of growth rate ([6]; ΔyghB, 1.5 g/L Vanillin): 18%
- Solubility ([3]; solubility in water, Table 3B): 10000 µg/mL (≈ 65.7 mM)

Compound: Butanol
- Wild-type growth rate (E. coli MG1655 wild-type [5]; 5 g/L Butanol (FIG. 9B)): 0.25 h⁻¹
- experimental EC50 / half-maximal growth repression (E. coli MG1655 wild-type [5]; wild-type E. coli, own experimental set-up): ~5000 µg/mL
- tolerance of adapted strains compared to wild-type [4]: increased tolerance
- increased growth rate ([6]; double knock out rob and marC with rob H48fs expression, 5 g/L Butanol): 41%
- increase of tolerance (growth rate vs wild-type) ([6]; ΔmarC, 5 g/L Butanol): 32%
- increase of tolerance (growth rate vs wild-type) ([6]; Δrob with leaky rob H48frameshift expression, 5 g/L Butanol): 34%
- increase of tolerance (growth rate vs wild-type) ([6]; Δrob, 5 g/L Butanol): about 25%
- increase of relative fitness ([6]; ΔyghB complemented with yghB plasmid, 0 μM IPTG, 5 g/L Butanol): about 11%
- effect of yghB knock-out on tolerance ([6]; ΔyghB, 5 g/L Butanol): decreases tolerance
- literature value for half-maximal concentration (E. coli MG1655 wild-type [8]): 7.5 g/L
